Tests used:
[1] = target: Cyclin-dependent kinase 5/CDK5 activator 1 (Homo sapiens, UniProt Q00535); assay: Inhibition of human CDK5/p25 assessed as histone h1 phosphorylation in presence of ATP; format: protein-complex assay
Homo sapiens = species: Homo sapiens; assay: Selectivity for human CDK5/p25 over human CDK2/cyclin E2
Brain = assay: Drug uptake in rat brain at 2 mg/kg, iv; format: ADME, organism-based; parameters: dose 2 mg/kg, route intravenous; settings: in vivo

Cyclin-dependent kinase 5/CDK5 activator 1, sequence (Q00535 whole entry): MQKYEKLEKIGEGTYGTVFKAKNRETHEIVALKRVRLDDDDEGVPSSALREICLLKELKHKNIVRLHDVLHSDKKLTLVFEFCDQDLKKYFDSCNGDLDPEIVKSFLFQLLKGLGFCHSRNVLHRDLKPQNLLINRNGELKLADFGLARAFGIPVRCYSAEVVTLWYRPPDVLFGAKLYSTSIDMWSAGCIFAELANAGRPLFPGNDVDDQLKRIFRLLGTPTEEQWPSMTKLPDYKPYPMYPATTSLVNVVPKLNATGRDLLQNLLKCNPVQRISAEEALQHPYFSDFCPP
Cyclin-dependent kinase 5/CDK5 activator 1, sequence (Q15078 whole entry, further chain): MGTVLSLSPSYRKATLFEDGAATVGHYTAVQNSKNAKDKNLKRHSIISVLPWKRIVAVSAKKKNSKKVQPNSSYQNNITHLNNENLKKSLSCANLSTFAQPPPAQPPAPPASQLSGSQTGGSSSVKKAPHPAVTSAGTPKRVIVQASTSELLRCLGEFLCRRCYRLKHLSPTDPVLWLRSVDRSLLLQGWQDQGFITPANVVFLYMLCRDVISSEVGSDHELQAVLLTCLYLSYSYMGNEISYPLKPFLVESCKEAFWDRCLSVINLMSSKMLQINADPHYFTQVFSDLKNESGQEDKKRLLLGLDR

Row | Compound | IC50 [1] | fold change (FC) (Homo sapiens) | Drug uptake (Brain)
1 | CCOC(=O)c1cc(-c2csc(-c3ccncc3)n2)c(=O)[nH]c1C | 131 nM | – | –
2 | CC(C)c1[nH]c(=O)c(-c2csc(-c3ccncc3)n2)cc1C(=O)OC1CCCN(C)C1 (stereo not drawn) | 73 nM | – | –
3 | CCOC(=O)c1cc(-c2csc(-c3ccncc3)n2)c(=O)[nH]c1C(C)C | 157 nM | – | 4640 ng/g
4 | CC(C)c1[nH]c(=O)c(-c2csc(-c3ccncc3)n2)cc1C(=O)OC1CCN(C)CC1 | 647 nM | – | –
5 | CC(C)c1[nH]c(=O)c(-c2csc(-c3ccncc3)n2)cc1C(=O)OCCN1CCCC1 | 112 nM | – | –
6 | CCOC(=O)c1cc(-c2csc(-c3ccncc3)n2)c(=O)[nH]c1COCc1ccccc1 | 779 nM | – | –
7 | CCOC(=O)c1cc(-c2csc(-c3ccncc3)n2)c(=O)[nH]c1C(F)(F)F | 11500 nM | – | –
8 | CCOC(=O)c1cc(-c2csc(-c3ccnc(NCCN(CC)CC)c3)n2)c(=O)[nH]c1C | 139 nM | – | –
9 | CCOC(=O)c1cc(-c2csc(-c3ccnc(Cl)c3)n2)c(=O)[nH]c1C | 160 nM | – | –
10 | CC(C)c1[nH]c(=O)c(-c2csc(-c3ccncc3)n2)cc1C(=O)OCCc1ccccc1 | 119 nM | – | –
11 | CCOC(=O)c1cc(-c2csc(-c3ccnc(OC)c3)n2)c(=O)[nH]c1C(C)C | 672 nM | – | –
12 | CCOC(=O)c1cc(-c2csc(-c3ccncc3)n2)c(=O)[nH]c1C1CC1 | 198 nM | – | –

The next molecules have a lower IC50 [1] than those just listed; values first:

Row | IC50 [1] | fold change (FC) (Homo sapiens) | Drug uptake (Brain) | Compound
13 | 53 nM | – | – | CCN(CC)CCOC(=O)c1cc(-c2csc(-c3ccncc3)n2)c(=O)[nH]c1C(C)C
14 | 4.1 nM | – | – | CCOC(=O)c1cc(-c2csc(-c3ccncc3)n2)c(=O)[nH]c1CC
15 | 1.4 nM | 70 | – | CCCc1[nH]c(=O)c(-c2csc(CS(=O)(=O)c3ccccc3)n2)cc1C(=O)OCC
16 | 3.3 nM | 70 | 44 ng/g | CCOC(=O)c1cc(-c2csc(CS(=O)(=O)c3ccccc3)n2)c(=O)[nH]c1C
17 | 5.3 nM | 70 | – | CCOC(=O)c1cc(-c2csc(CS(=O)(=O)c3ccccc3)n2)c(=O)[nH]c1COCc1ccccc1
18 | 47 nM | – | – | CCN(CC)CCCOC(=O)c1cc(-c2csc(-c3ccncc3)n2)c(=O)[nH]c1C(C)C
19 | 20 nM | – | – | CCOC(=O)c1cc(-c2csc(-c3ccnc(N)c3)n2)c(=O)[nH]c1C
20 | 28 nM | – | – | CCOC(=O)c1cc(-c2csc(-c3ccnc(NC)c3)n2)c(=O)[nH]c1C(C)C
21 | 36 nM | – | – | CCN(CC)CC(C)OC(=O)c1cc(-c2csc(-c3ccncc3)n2)c(=O)[nH]c1C(C)C (stereo not drawn)
22 | 55 nM | – | – | CCCc1[nH]c(=O)c(-c2csc(-c3ccncc3)n2)cc1C(=O)OCC
23 | 14 nM | – | – | CCOC(=O)c1cc(-c2csc(-c3ccnc(NCC(C)C)c3)n2)c(=O)[nH]c1C

From ChEMBL document CHEMBL1154668, “Design and synthesis of 6-oxo-1,6-dihydropyridines as CDK5 inhibitors” (Bioorg Med Chem Lett, 2009)
